Patent US11026936B2, “Piperidinyl-propanone derivatives” (Merck Patent GmbH, priority 2016, dated 2021)

Tests used:
[1] = test system: PDH-E1alpha (pSer300) in HEK293T cells; experiment: Cellular immunofluorescence assay, PDH-E1alpha (pSer300); format: cell-based; conditions: Homo sapiens, HEK-293T, 5 hours incubation, read-out: IC50 (cell data)
Procedure: Cellular Assay for Determination of Compound Activities
Compound activities were determined in a cellular immunofluorescence assay. Human HEK293T cells were seeded into black 384-well plates with clear bottom and grown overnight.
Next day, test compounds were added to the wells and the plates incubated for 5 hours. Following this, cells were fixed with formaldehyde, permeabilised and blocked. The primary antibody, Anti-PDH-E1alpha (pSer300), AP1064 (Merck Millipore) was added and incubated overnight in the plate wells. Next, cells were washed and the seconday antibody, Alexa Fluor 488, goat anti-rabbit ab (A-11008, Invitrogen) was added together with Hoechst 33258 (H3569, Invitrogen) and incubated for 1 hour in the plate wells. Finally, cells were washed and the plates were measured on the laser scanning cytometer acumen hci (TTpLabtech).
The raw data were normalized against a pharmacological inhibitor control and dose response curves were generated by plotting the percent effect values using the software package Genedata screener (Genedata).

PDHK2 = PDHK2 (Homo sapiens (Human), UniProt Q15119); experiment: Biochemical activity testing of PDHK2: PDC inactivation assay; conditions: human rec PDHK2, PDC from porcine heart, ATP 5 μM; read-out: IC50 PDHK2 (enzyme assay)
Description: Biochemical Activity Testing of PDHK2: PDC Inactivation Assay
The biochemical activity assay for PDHK2 is based on the inactivation of PDC through phosphorylation by PDHK2. The assay is run in two steps: the enzymatic PDHK2 reaction in which isolated PDC is phosphorylated by PDHK2 with ATP as co-substrate and the PDC activity assay in which pyruvate and NAD are converted to acetyl-CoA and NADH. The PDC activity correlates to the increase in NADH and thereby is detectable directly via the increasing fluorescence signal (Exc 340 nm, Em 450 nm). Inhibition of PDHK2 results in a lower phosphorylation status and thereby a less decrease in activity of PDC and a stronger increase in NADH fluorescence signal.
The PDC inactivation assay is performed in Greiner 384-well microtiter plates and is used for high throughput screen. 4 μl of PDHK2 (human, rec, Carna Bioscience, 10 ng/μl-137 nM final concentration) and PDC (isolated from porcine heart, Sigma-Aldrich, 20 mU/ml final concentration) are incubated in the absence or presence of the test compound (10 dilution concentrations) for 30 min at room temperature in kinase buffer (15 mM potassium phosphate buffer, pH 7.0, 60 mM KCl, 1.5 mM DTT, 2.5 mM MgCl2, 0.0125% (w/v) BSA, 0.125% Pluronic F-68). The kinase reaction is started by the addition of 4 μl ATP substrate solution (fc 5 μM in kinase buffer). After 30 min incubation at 37° C. 40 μl of PDC reaction solution (100 mM Tris/HCl, pH 7.8, 0.5 mM EDTA, 1 mM MgCl2, 50 mM NaF, 0.25 mM Coenzyme A, 5 mM pyruvate, 1 mM NAD, 5 mM DTT, 1 mM thiamine pyrophosphate) is added. The first fluorescence measurement is performed on a Perkin Elmer Envision (Exc 340 nm, Em 450 nm). The reaction is incubated for 45 min at room temperature. Afterwards a second fluorescence measurement is performed and the PDC activity is calculated by the difference between both measurements. As full value for the PDHK2 assay the inhibitor-free PDHK2 reaction is used. The pharmacological zero value used is DCA (Sigma-Aldrich) in a final concentration of 3 mM. The inhibitory values (IC50) were determined using either the program Symyx Assay Explorer® or Condosseo® from GeneData.

human PDHK2 (12-407) = human PDHK2 (12-407) (Homo sapiens (Human), UniProt Q15119); experiment: Isothermal titration calorimetry (ITC) binding; conditions: 30° C., pH 7.5
Procedure: Isothermal Titration Calorimetry
ITC measurements were performed with a VP-ITC micro calorimeter (Microcal, LLC/GE Healthcare Bio-Sciences AB, Uppsala, Sweden). In general titrations were performed by titrating the protein (50 μM) to the test compound (5 μM) in 12 μl injections. All binding experiments were carried out at 30° C. In general the test compounds were diluted form DMSO stock solutions into the measurement buffer with a maximum final concentration of 1% DMSO. The measurement buffer was 20 mM HEPES, 135 mM KCl, 1 mM TCEP, 2 mM MgCl2, 15 mM NaH2PO4, pH 7.5. The human PDHK2 (12-407) was produced in E. coli as his-tagged protein and purified by affinity chromatography. The tag was removed by side specific proteolysis. Before titration the protein buffer was changed to the measurement buffer containing the same DMSO concentration as the test compound dilution. ITC data analysis was performed using Origin 7 calorimetry software from the same supplier. For most measurements a binding model of one binding site was assumed. According to the applied mathematical model it is possible to calculate the binding constant (KA), the observed binding enthalpy (ΔH^obs) as well as the stoichiometry (N) of the formed complex. Preceding analysis the raw data was corrected for the heats of dilution by extrapolating from the saturation value from the end of titration. In order to allow for direct comparison between the respective experimental series and protein preparations the protein concentration was corrected by referencing titrations to a well behaved standard inhibitor. The apparent stoichiometry values defined the fraction of binding competent protein and compensated for relative errors in protein concentration measurements. This corrected protein concentration was used to set up ITC experiment series with test compounds. Any deviations from ideal 1:1 stoichiometry observed here were attributed to errors in compound concentration. This nominal compound concentration was corrected as well to achieve 1:1 stoichiometry in the fit.

Row | IC50 (PDHK2) | Kd (human PDHK2 (12-407)) | Structure (SMILES) | IC50 [1]
1 | 88 nM | 2.5 nM | COc1ccc(-c2nnc(C3([C@H]4CCN(C(=O)[C@@](C)(O)C(F)(F)F)C[C@H]4C)CC3)[nH]2)cc1 [Compound A28, (R)-3,3,3-Trifluoro-2-hydroxy-1-((3S,4S)-4-{1-[5-(4-methoxy-phenyl)-4H-[1,2,4]triazol-3-yl]-cyclopropyl}-3-methyl-piperidin-1-yl)-2-methyl-propan-1-one] | 12 nM
2 | 180 nM | 3.6 nM | COc1ccc(-c2nnc(C3([C@H]4CCN(C(=O)[C@@](C)(O)C(F)(F)F)C[C@H]4C)CC3)o2)cc1 [Compound A31, (R)-3,3,3-Trifluoro-2-hydroxy-1-((3S,4S)-4-{1-[5-(4-methoxy-phenyl)-[1,3,4]oxadiazol-2-yl]-cyclopropyl}-3-methyl-piperidin-1-yl)-2-methyl-propan-1-one] | 17 nM
3 | 130 nM | 2.4 nM | C[C@@H]1CN(C(=O)[C@@](C)(O)C(F)(F)F)CC[C@@H]1C1(c2nnc(-c3ccc(Cl)cc3)o2)CC1 [Compound A37, (R)-1-((3S,4S)-4-{1-[5-(4-Chloro-phenyl)-[1,3,4]oxadiazol-2-yl]-cyclopropyl}-3-methyl-piperidin-1-yl)-3,3,3-trifluoro-2-hydroxy-2-methyl-propan-1-one] | 25 nM
4 | 100 nM | 3.8 nM | COc1ccc(-c2nnc(C3([C@H]4CCN(C(=O)[C@@](C)(O)C(F)(F)F)C[C@H]4C)CC3)o2)cn1 [Compound A43, (R)-3,3,3-Trifluoro-2-hydroxy-1-((3S,4S)-4-{1-[5-(6-methoxy-pyridin-3-yl)-[1,3,4]oxadiazol-2-yl]-cyclopropyl}-3-methyl-piperidin-1-yl)-2-methyl-propan-1-one] | 16 nM
5 | 91 nM | 6.5 nM | COc1ccc(-c2nnc(C3([C@H]4CCN(C(=O)[C@@](C)(O)C(F)(F)F)C[C@H]4C)CC3)[nH]2)cn1 [Compound A40, (R)-3,3,3-Trifluoro-2-hydroxy-1-((3S,4S)-4-{1-[5-(6-methoxy-pyridin-3-yl)-4H-[1,2,4]triazol-3-yl]-cyclopropyl}-3-methyl-piperidin-1-yl)-2-methyl-propan-1-one] | 25 nM
6 | 90 nM | 2.6 nM | Cc1ccc(-c2nnc(C3([C@H]4CCN(C(=O)[C@@](C)(O)C(F)(F)F)C[C@H]4C)CC3)[nH]2)cc1 [Compound A22, (R)-3,3,3-Trifluoro-2-hydroxy-2-methyl-1-{(3S,4S)-3-methyl-4-[1-(5-p-tolyl-4H-[1,2,4]triazol-3-yl)-cyclopropyl]-piperidin-1-yl}-propan-1-one] | 16 nM

Continued, compound first:

Row | Structure (SMILES) | IC50 (PDHK2) | Kd (human PDHK2 (12-407)) | IC50 [1]
7 | CC(C)(c1nnc(-c2ccccc2)o1)C1CCN(C(=O)[C@@](C)(O)C(F)(F)F)CC1 [Compound A9, (R)-3,3,3-Trifluoro-2-hydroxy-2-methyl-1-{4-[1-methyl-1-(5-phenyl-[1,3,4]oxadiazol-2-yl)-ethyl]-piperidin-1-yl}-propan-1-one] | 720 nM | 50 nM | 650 nM
8 | CC(C)(c1nnc(C2CCCCC2)o1)C1CCN(C(=O)[C@@](C)(O)C(F)(F)F)CC1 [Compound A10, (R)-1-{4-[1-(5-Cyclohexyl-[1,3,4]oxadiazol-2-yl)-1-methyl-ethyl]-piperidin-1-yl}-3,3,3-trifluoro-2-hydroxy-2-methyl-propan-1-one] | 400 nM | 120 nM | 2000 nM
9 | CC(C)(C)c1nnc(C2(C3CCN(C(=O)[C@@](C)(O)C(F)(F)F)CC3)CC2)o1 [Compound A8, (R)-1-{4-[1-(5-tert-Butyl-[1,3,4]oxadiazol-2-yl)-cyclopropyl]-piperidin-1-yl}-3,3,3-trifluoro-2-hydroxy-2-methyl-propan-1-one] | 2400 nM | 650 nM | 8700 nM
10 | Cc1nnc(C2(C3CCN(C(=O)[C@@](C)(O)C(F)(F)F)CC3)CC2)o1 [Compound A7, (R)-3,3,3-Trifluoro-2-hydroxy-2-methyl-1-{4-[1-(5-methyl-[1,3,4]oxadiazol-2-yl)-cyclopropyl]-piperidin-1-yl}-propan-1-one] | 3500 nM | 850 nM | > 30000 nM
11 | C[C@@](O)(C(=O)N1CCC(C2(c3nnc(-c4ccc(F)cc4)[nH]3)CC2)CC1)C(F)(F)F [Compound A2, (R)-3,3,3-Trifluoro-1-{4-{1-[5-(4-fluorophenyl)-4H-[1,2,4]triazol-3-yl]-cyclopropyl}-piperidin-1-yl}-2-hydroxy-2-methyl-propan-1-one] |  | 180 nM | 2000 nM
12 | C[C@@](O)(C(=O)N1CCC(C2(c3nnc(-c4ccccc4)o3)CC2)CC1)C(F)(F)F [Compound A5, (R)-3,3,3-Trifluoro-2-hydroxy-2-methyl-1-{4-[1-(5-phenyl-[1,3,4]oxadiazol-2-yl)-cyclopropyl]-piperidin-1-yl}-propan-1-one] | 440 nM | 200 nM | 1500 nM
13 | CC(C)(c1nnc(C2CCCCC2)[nH]1)C1CCN(C(=O)[C@@](C)(O)C(F)(F)F)CC1 [Compound A4, (R)-1-{4-[1-(5-Cyclohexyl-4H-[1,2,4]triazol-3-yl)-1-methyl-ethyl]-piperidin-1-yl}-3,3,3-trifluoro-2-hydroxy-2-methyl-propan-1-one] | 1400 nM | 290 nM | 3900 nM
14 | C[C@@H]1CN(C(=O)[C@@](C)(O)C(F)(F)F)CC[C@@H]1C1(c2nnc(-c3ccccc3)[nH]2)CC1 [Compound A14, (R)-3,3,3-Trifluoro-2-hydroxy-2-methyl-1-{(3S,4S)-3-methyl-4-[1-(5-phenyl-4H-[1,2,4]triazol-3-yl)-cyclopropyl]-piperidin-1-yl}-propan-1-one] | 130 nM | < 2 nM | 19 nM
15 | C[C@@](O)(C(=O)N1CCC(C2(c3nnc(-c4ccc(F)cc4)o3)CC2)CC1)C(F)(F)F [Compound A6, (R)-3,3,3-Trifluoro-1-{4-{1-[5-(4-fluoro-phenyl)-[1,3,4]oxadiazol-2-yl]-cyclopropyl}-piperidin-1-yl}-2-hydroxy-2-methyl-propan-1-one] | 500 nM | 270 nM | 2000 nM
16 | C[C@H]1CN(C(=O)[C@@](C)(O)C(F)(F)F)CC[C@H]1C1(c2nnc(-c3ccccc3)o2)CC1 (stereo in doubt) [Compound A15, (R)-3,3,3-Trifluoro-2-hydroxy-2-methyl-1-{(S)-3-methyl-4-[1-(5-phenyl-[1,3,4]oxadiazol-2-yl)-cyclopropyl]-piperidin-1-yl}-propan-1-one] | 11000 nM |  | 7300 nM
